# Laboratory results published in patent US10913757B2, “Hydroxycinnamic derivatives, methods and uses thereof” (UNIVERSIDADE DO PORTO, priority 2016, dated 2021).
# Columns and labels:
# [1] = Redox properties by differential pulse and cyclic voltammetry; format: physicochemical; settings: for reversibility of the oxidation reaction: cyclic voltammetry, physiological pH; for Ep (redox potential): physiological pH (7.4), voltammetry
# Method: In an embodiment, and as an example, AntiOxCINs redox properties were evaluated (Table 1). Redox potentials are correlated with the ability of an antioxidant to donate a hydrogen atom and/or an electron to a free radical.
# However, for pyrogallol derivatives (AntiOxCIN4, AntiOxCIN5 and AntiOxCIN7), a significant decrease in redox potentials was observed (Ep=0.034-0.057 V) (Table 1).
# The voltammograms presented a diffusion peak and an adsorption post-peak at a more anodic potential correspondent to the oxidation of dissolved and adsorbed forms of the compounds, respectively. The oxidation waves can be related to the oxidation process of the pyrogallol moiety. The cyclic voltammograms also show the presence of two overlapped anodic peaks. The anodic peaks appeared to correspond to irreversible processes as any distinct reduction wave was not seen on the cathodic sweep. The existence of the additional phenolic group in the pyrogallol systems, when compared with the catechol ones, seems to influence the stabilization of the semiquinone intermediate and in turn the oxidative mechanism.
# In an embodiment, the electrochemical analytical data was obtained using a computer controlled potentiostat Autolab PGSTAT302N (Metrohm Autolab, Utrecht, Netherlands). Generally, cyclic voltammetry (CV) data was acquired at a scan rate of 50 mVs^−1. Differential pulse voltammetry (DPV) results were acquired at a step potential of 4 mV, pulse amplitude of 50 mV and scan rate of 8 mVs^−1. The electrochemical signals were monitored by the General Purpose Electrochemical System (GPES) version 4.9, software package. All electrochemical experiments were performed at room temperature in an electrochemical cell that was placed in a Faraday cage in order to minimize the contribution of background noise to the analytical signal.
# In an embodiment, the process of evaluation of AntiOxCINs redox properties was conducted as follows: stock solutions of each compound (10 mM) were prepared by dissolving the appropriate amount in ethanol. The voltammetric working solutions were prepared in the electrochemical cell, at a final concentration of 0.1 mM. The […] supporting electrolyte was prepared by diluting […] to 100 mL. Voltammetric data was acquired in a three-electrode system consisting of a glassy carbon electrode (GCE, d=2 mm) as working electrode, a counter electrode of platinum wire and a saturated Ag/AgCl reference electrode. In an embodiment, the evaluation of AntiOxCINs lipophilic properties was performed as follows: the electrochemical cell was a four-electrode system with arrays of micro liquid-liquid interfaces (μlTIES) containing two Ag/AgCl reference electrodes and two counter electrodes of Pt, one in each phase. The microporous membrane was sealed with a fluorosilicone sealant (Dow Corning 730) onto a glass cylinder which was filled with 4.0 mL of the aqueous phase, where the aliquots of AntiOxCINs solutions were added. The membrane was then immersed into the organic phase contained in the cell. The organic phase reference solution (a 2 mM BTPPACI+2 mM NaCl aqueous solution) was mechanically stabilized The aqueous supporting electrolyte solution was a Tris-HCl buffer 10 mM pH 7.0.
# [2] = test system: rat liver mitochondria (RLM); assay: Mitochondrial transmembrane electric potential (ΔΨ) of RLM, safranine fluorescence; format: biochemical
# Method: (§1) In an embodiment, and as an example, AntiOxCINs and MitoQ toxicity effects on the mitochondrial bioenergetics, namely on RLM ΔΨ and mitochondrial respiration parameters, were measured. The […] represents the main component of the electrochemical gradient generated by mitochondrial respiration and accounts for more than 90% of the total available energy. For mitochondrial respiration assays, glutamate/malate (for complex I) and succinate (for complex II) were used as substrates. In addition, the mitochondrial oxidative phosphorylation coupling index, known as respiratory control ratio (RCR, state 3/state 4 respiration) and ADP/O index (the coupling between ATP synthesis and oxygen consumption) were also calculated. AntiOxCINs and MitoQ were tested at antioxidant-relevant concentrations, with 10 μM being the highest concentration.
# (§2) In an embodiment, the evaluation of AntiOxCINs functional mitochondrial toxicity profile was performed in rat liver mitochondria (RLM). […] The protein concentration was determined by the biuret assay using BSA as a standard.
# Then, 1 μM FCCP was added at the end of all experiments to depolarize mitochondria. ΔΨ was calculated using a calibration curve obtained when RLM were incubated in a K^+-free reaction medium containing 200 mM sucrose, 1 mM NaH2PO4, 10 mM Tris (pH 7.4) and 10 μM EGTA, supplemented with 0.4 μg valinomicin. […] “Repolarization” corresponded to the recovery of membrane potential after the complete phosphorylation of ADP added. Lag phase reflected the time required to phosphorylate the added ADP. […] Data are means±SEM of five independent experiments.
# [3] = test system: rat liver mitochondria (RLM); assay: Mitochondrial respiration of isolated RLM (Clark-type oxygen electrode); format: biochemical; settings: for effect on state 3 respiration: all tested concentrations (2.5-10 μM), FIG. 6B-H
# Method: as §1, §2
# In an embodiment, the evaluation of AntiOxCINs effect on mitochondrial respiration was performed as follows: the respiration of isolated RLM was evaluated polarographically with a Clark-type oxygen electrode, connected to a suitable recorder in a 1 mL thermostated water-jacketed chamber with magnetic stirring, at 37° C.^1. […] Increasing concentrations of AntiOxCINs (2.5-10 μM) were added to the reaction medium containing respiratory substrates glutamate/malate (10 mM and 5 mM respectively) or succinate (5 mM) and RLM (1 mg) and allowed to incubate for a 5 min period prior to the assay. State 2 was considered as the respiration during the 5 min incubation time with AntiOxCINs. […] State 4 was determined after ADP phosphorylation finished. Subsequent addition of oligomycin (2 μg/ml) inhibited ATP-synthase and originated the oligomycin-inhibition respiration state. Finally, 1 μM FCCP was added to induce uncoupled respiration.
smiles,measurement,setting,value
"CS(=O)(=O)[O-].O=C(/C=C/c1ccc(O)c(O)c1)NCCCCCC[P+](c1ccccc1)(c1ccccc1)c1ccccc1 [AntiOxCIN2, (E)-(6-(3-(3,4-dihydroxyphenyl)prop-2-enamido)hexyl)triphenylphosphonium methanesulfonate]",reversibility of the oxidation reaction,[1],reversible reaction
same,Ep (redox potential),"[1]; listed as AntiOxClN2, methanesulfonate",0.164 V
same,ADP-induced depolarization (ΔΨ in - mV),"[2]; glutamate/malate, 2.5 μM",186.2 ± 8.9 mV
same,Lag Phase,"[2]; glutamate/malate, 2.5 μM",81.2 ± 7.2 s
same,Maximum potential (ΔΨ in - mV),"[2]; glutamate/malate, 2.5 μM",208.4 ± 10.1 mV
same,Repolarization Potential (ΔΨ in - mV),"[2]; glutamate/malate, 2.5 μM",205.1 ± 9.0 mV
same,ADP-induced depolarization (ΔΨ in - mV),"[2]; glutamate/malate, 5 μM",199.2 ± 13.3 mV
same,Lag Phase,"[2]; glutamate/malate, 5 μM",79.5 ± 7.0 s
same,Maximum potential (ΔΨ in - mV),"[2]; glutamate/malate, 5 μM",214.8 ± 11.7 mV
same,Repolarization Potential (ΔΨ in - mV),"[2]; glutamate/malate, 5 μM",214.0 ± 12.5 mV
same,ADP-induced depolarization (ΔΨ in - mV),"[2]; glutamate/malate, 10 μM",193.3 ± 9.1 mV
same,Lag Phase,"[2]; glutamate/malate, 10 μM",88.7 ± 25.1 s
same,Maximum potential (ΔΨ in - mV),"[2]; glutamate/malate, 10 μM",209.8 ± 9.4 mV
same,Repolarization Potential (ΔΨ in - mV),"[2]; glutamate/malate, 10 μM",202.0 ± 8.0 mV
same,ADP-induced depolarization (ΔΨ in - mV),"[2]; succinate, 2.5 μM",169.3 ± 4.0 mV
same,Lag Phase,"[2]; succinate, 2.5 μM",101.2 ± 7.5 s
same,Maximum potential (ΔΨ in - mV),"[2]; succinate, 2.5 μM",190.5 ± 5.9 mV
same,Repolarization Potential (ΔΨ in - mV),"[2]; succinate, 2.5 μM",191.5 ± 7.5 mV
same,ADP-induced depolarization (ΔΨ in - mV),"[2]; succinate, 5 μM",174.9 ± 5.5 mV
same,Lag Phase,"[2]; succinate, 5 μM",64.6 ± 19.4 s
same,Maximum potential (ΔΨ in - mV),"[2]; succinate, 5 μM",189.7 ± 8.0 mV
same,Repolarization Potential (ΔΨ in - mV),"[2]; succinate, 5 μM",189.5 ± 9.0 mV
same,ADP-induced depolarization (ΔΨ in - mV),"[2]; succinate, 10 μM",178.7 ± 6.3 mV
same,Lag Phase,"[2]; succinate, 10 μM",46.2 ± 12.4 s
same,Maximum potential (ΔΨ in - mV),"[2]; succinate, 10 μM",190.0 ± 6.3 mV
same,Repolarization Potential (ΔΨ in - mV),"[2]; succinate, 10 μM",186.6 ± 7.1 mV
same,effect on state 3 respiration,[3],decrease
same,ADP/O,"[3]; glutamate/malate, 2.5 μM",2.4 ± 0.04
same,"RCR (respiratory control ratio, state 3/state 4)","[3]; glutamate/malate, 2.5 μM",5.2 ± 1.0
same,ADP/O,"[3]; glutamate/malate, 5 μM",2.2 ± 0.1
same,"RCR (respiratory control ratio, state 3/state 4)","[3]; glutamate/malate, 5 μM",3.9 ± 0.6
same,ADP/O,"[3]; glutamate/malate, 10 μM",2.2 ± 0.1
same,"RCR (respiratory control ratio, state 3/state 4)","[3]; glutamate/malate, 10 μM",3.4 ± 0.3
same,ADP/O,"[3]; succinate, 2.5 μM",1.4 ± 0.1
same,"RCR (respiratory control ratio, state 3/state 4)","[3]; succinate, 2.5 μM",3.3 ± 0.2
same,ADP/O,"[3]; succinate, 5 μM",1.3 ± 0.1
same,"RCR (respiratory control ratio, state 3/state 4)","[3]; succinate, 5 μM",3.3 ± 0.2
same,ADP/O,"[3]; succinate, 10 μM",1.1 ± 0.1
same,"RCR (respiratory control ratio, state 3/state 4)","[3]; succinate, 10 μM",2.1 ± 0.2
"CS(=O)(=O)[O-].O=C(/C=C/c1ccc(O)c(O)c1)NCCCCCCCC[P+](c1ccccc1)(c1ccccc1)c1ccccc1 [AntiOxCIN3, (E)-(8-(3-(3,4-dihydroxyphenyl)acrylamido)octyl)triphenylphosphoniummethanesulfonate]",reversibility of the oxidation reaction,[1],reversible reaction
same,Ep (redox potential),[1]; listed as AntiOxClN3,0.170 V
same,initial slight hyperpolarization,[2]; 2.5 μM,10 mV
same,ADP-induced depolarization (ΔΨ in - mV),"[2]; glutamate/malate, 2.5 μM",199.4 ± 7.4 mV
same,Lag Phase,"[2]; glutamate/malate, 2.5 μM",65.8 ± 6.6 s
same,Maximum potential (ΔΨ in - mV),"[2]; glutamate/malate, 2.5 μM",238.0 ± 9.8 mV
same,Repolarization Potential (ΔΨ in - mV),"[2]; glutamate/malate, 2.5 μM",234.8 ± 10.3 mV
same,ADP-induced depolarization (ΔΨ in - mV),"[2]; glutamate/malate, 5 μM",200.7 ± 5.5 mV
same,Lag Phase,"[2]; glutamate/malate, 5 μM",68.2 ± 9.6 s
same,Maximum potential (ΔΨ in - mV),"[2]; glutamate/malate, 5 μM",238.9 ± 8.6 mV
same,Repolarization Potential (ΔΨ in - mV),"[2]; glutamate/malate, 5 μM",235.0 ± 8.4 mV
same,ADP-induced depolarization (ΔΨ in - mV),"[2]; glutamate/malate, 10 μM",302.5 ± 6.3 mV
same,Lag Phase,"[2]; glutamate/malate, 10 μM",73.8 ± 12.1 s
same,Maximum potential (ΔΨ in - mV),"[2]; glutamate/malate, 10 μM",238.0 ± 6.7 mV
same,Repolarization Potential (ΔΨ in - mV),"[2]; glutamate/malate, 10 μM",231.5 ± 7.2 mV
same,ADP-induced depolarization (ΔΨ in - mV),"[2]; succinate, 2.5 μM",171.5 ± 7.3 mV
same,Lag Phase,"[2]; succinate, 2.5 μM",84.6 ± 16.7 s
same,Maximum potential (ΔΨ in - mV),"[2]; succinate, 2.5 μM",191.2 ± 9.1 mV
same,Repolarization Potential (ΔΨ in - mV),"[2]; succinate, 2.5 μM",186.7 ± 9.3 mV
same,ADP-induced depolarization (ΔΨ in - mV),"[2]; succinate, 5 μM",174.5 ± 7.7 mV
same,Lag Phase,"[2]; succinate, 5 μM",92.0 ± 10.3 s
same,Maximum potential (ΔΨ in - mV),"[2]; succinate, 5 μM",193.3 ± 7.6 mV
same,Repolarization Potential (ΔΨ in - mV),"[2]; succinate, 5 μM",190.4 ± 8.3 mV
same,ADP-induced depolarization (ΔΨ in - mV),"[2]; succinate, 10 μM",172.2 ± 7.5 mV
same,Lag Phase,"[2]; succinate, 10 μM",79.8 ± 17.6 s
same,Maximum potential (ΔΨ in - mV),"[2]; succinate, 10 μM",189.7 ± 7.8 mV
same,Repolarization Potential (ΔΨ in - mV),"[2]; succinate, 10 μM",184.2 ± 7.6 mV
same,effect on state 3 respiration,[3],increase
same,ADP/O,"[3]; glutamate/malate, 2.5 μM",2.4 ± 0.2
same,"RCR (respiratory control ratio, state 3/state 4)","[3]; glutamate/malate, 2.5 μM",3.8 ± 0.5
same,ADP/O,"[3]; glutamate/malate, 5 μM",2.7 ± 0.2
same,"RCR (respiratory control ratio, state 3/state 4)","[3]; glutamate/malate, 5 μM",3.5 ± 0.5
same,ADP/O,"[3]; glutamate/malate, 10 μM",2.4 ± 0.1
same,"RCR (respiratory control ratio, state 3/state 4)","[3]; glutamate/malate, 10 μM",3.3 ± 0.3
same,ADP/O,"[3]; succinate, 2.5 μM",1.6 ± 0.1
same,"RCR (respiratory control ratio, state 3/state 4)","[3]; succinate, 2.5 μM",4.1 ± 0.5
same,ADP/O,"[3]; succinate, 5 μM",1.8 ± 0.3
same,"RCR (respiratory control ratio, state 3/state 4)","[3]; succinate, 5 μM",4.7 ± 0.7
same,ADP/O,"[3]; succinate, 10 μM",1.6 ± 0.1
same,"RCR (respiratory control ratio, state 3/state 4)","[3]; succinate, 10 μM",3.9 ± 0.6
"O=C(O)/C=C/c1ccc(O)c(O)c1 [Caffeic acid, caffeic acid, reference compound]",reversibility of the oxidation reaction,[1],reversible reaction
same,Ep (redox potential),[1],0.168 V
same,toxicity toward the mitochondrial bioenergetic apparatus,[3]; RLM,low toxicity
